# Test results: ChEMBL document CHEMBL6092206, “Discovery and Characterization of BAY-184: A New Potent and Selective Acylsulfonamide-Benzofuran In Vivo-Active KAT6AB Inhibitor” (J Med Chem, 2024)
# What was measured:
# [1] = molecular target: T1, Histone acetyltransferase KAT6A (Homo sapiens, UniProt Q92794); assay: Inhibition of KAT6A in human MVLN cells assessed as decrease in estrogen receptor level incubated for 24 hrs by gene reporter assay; format: cell-based
# [2] = molecular target: T1, Histone acetyltransferase KAT6A; assay: Inhibition of his-tagged human recombinant KAT6A (194 to 810 residues) expressed in baculovirus-infected Sf9 insect cells using H4-derived peptide as substrate incubated for 40 mins in presence of AcCoA by TR-FRET assay
# [3] = Dissociation constant, pKa of compound; format: physicochemical
# [4] = molecular target: Histone acetyltransferase KAT6B (Homo sapiens, UniProt Q8WYB5); assay: Inhibition of C-terminal human recombinant KAT6B (431 to end residues) expressed in baculovirus-infected Sf9 insect cells using H4-derived peptide as substrate incubated for 30 mins in presence of AcCoA by TR-FRET assay
# Histone acetyltransferase KAT6B, sequence (Q8WYB5 whole entry): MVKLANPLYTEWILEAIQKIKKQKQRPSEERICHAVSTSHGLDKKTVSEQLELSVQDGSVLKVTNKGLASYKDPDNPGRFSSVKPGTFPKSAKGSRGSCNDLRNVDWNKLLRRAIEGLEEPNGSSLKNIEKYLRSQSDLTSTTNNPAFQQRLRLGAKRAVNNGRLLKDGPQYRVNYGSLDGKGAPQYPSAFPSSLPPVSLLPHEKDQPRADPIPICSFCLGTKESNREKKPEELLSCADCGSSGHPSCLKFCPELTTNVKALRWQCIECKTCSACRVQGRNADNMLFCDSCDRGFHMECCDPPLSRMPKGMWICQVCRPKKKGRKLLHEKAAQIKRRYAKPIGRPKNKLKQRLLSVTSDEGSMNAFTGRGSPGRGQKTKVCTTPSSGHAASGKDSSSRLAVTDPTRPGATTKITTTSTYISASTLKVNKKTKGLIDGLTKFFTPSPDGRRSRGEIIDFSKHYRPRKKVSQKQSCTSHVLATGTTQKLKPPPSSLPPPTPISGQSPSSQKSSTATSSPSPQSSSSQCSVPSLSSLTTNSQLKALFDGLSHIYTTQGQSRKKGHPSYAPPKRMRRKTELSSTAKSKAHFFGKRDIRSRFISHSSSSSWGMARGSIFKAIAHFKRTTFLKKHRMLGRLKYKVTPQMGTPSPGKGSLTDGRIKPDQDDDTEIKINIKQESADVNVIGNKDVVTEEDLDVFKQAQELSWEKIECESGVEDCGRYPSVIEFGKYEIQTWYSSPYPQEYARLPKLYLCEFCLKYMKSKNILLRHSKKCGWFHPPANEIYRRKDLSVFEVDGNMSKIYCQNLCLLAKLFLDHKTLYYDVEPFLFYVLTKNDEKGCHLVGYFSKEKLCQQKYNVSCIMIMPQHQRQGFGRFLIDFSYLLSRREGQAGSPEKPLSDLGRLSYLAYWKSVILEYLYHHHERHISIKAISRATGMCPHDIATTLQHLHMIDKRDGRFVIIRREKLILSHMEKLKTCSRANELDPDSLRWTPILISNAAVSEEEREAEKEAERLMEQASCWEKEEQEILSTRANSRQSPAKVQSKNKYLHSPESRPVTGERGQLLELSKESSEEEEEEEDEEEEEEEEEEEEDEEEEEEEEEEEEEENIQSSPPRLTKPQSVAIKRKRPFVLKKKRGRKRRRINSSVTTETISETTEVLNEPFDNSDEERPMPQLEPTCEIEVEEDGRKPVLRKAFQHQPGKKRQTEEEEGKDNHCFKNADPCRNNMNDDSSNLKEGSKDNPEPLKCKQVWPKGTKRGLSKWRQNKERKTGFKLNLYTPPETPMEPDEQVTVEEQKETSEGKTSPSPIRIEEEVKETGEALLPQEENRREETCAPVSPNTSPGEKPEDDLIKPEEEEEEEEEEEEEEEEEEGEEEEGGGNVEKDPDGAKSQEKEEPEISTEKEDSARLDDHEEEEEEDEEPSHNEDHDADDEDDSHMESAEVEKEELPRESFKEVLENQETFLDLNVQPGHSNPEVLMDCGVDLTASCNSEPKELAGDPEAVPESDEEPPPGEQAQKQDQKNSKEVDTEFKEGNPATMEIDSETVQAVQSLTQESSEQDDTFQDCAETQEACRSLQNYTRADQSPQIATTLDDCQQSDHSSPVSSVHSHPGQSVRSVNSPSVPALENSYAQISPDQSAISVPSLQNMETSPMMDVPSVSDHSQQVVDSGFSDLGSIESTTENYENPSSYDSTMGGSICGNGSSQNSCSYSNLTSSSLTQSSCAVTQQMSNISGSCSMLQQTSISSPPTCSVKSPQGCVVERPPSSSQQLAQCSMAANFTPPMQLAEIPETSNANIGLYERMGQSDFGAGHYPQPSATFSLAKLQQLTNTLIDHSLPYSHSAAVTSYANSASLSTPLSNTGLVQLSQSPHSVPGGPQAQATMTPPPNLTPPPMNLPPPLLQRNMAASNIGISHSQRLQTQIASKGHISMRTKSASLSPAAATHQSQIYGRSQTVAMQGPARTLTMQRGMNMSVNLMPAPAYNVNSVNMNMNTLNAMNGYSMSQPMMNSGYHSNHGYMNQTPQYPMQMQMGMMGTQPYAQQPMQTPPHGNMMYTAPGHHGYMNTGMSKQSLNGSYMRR
# [5] = Lipophilicity, logD of the compound at pH 7.5; format: physicochemical; conditions: buffer
# [6] = Aqueous solubility of compound in PBS at pH 6.5 incubated for 24 hrs by HPLC-UV analysis; format: physicochemical
# [7] = Apparent permeability across apical to basolateral side in human Caco-2 cells at 2 uM pH 7.2 measured for 2 hrs by LC-MS/MS analysis; format: ADME, cell-based
# [8] = Efflux ratio of apparent permeability across basolateral to apical side over apical to basolateral side in human Caco-2 cells incubated for 2 hrs by LC-MS/MS analysis; format: ADME, cell-based; conditions: caco-2, 2 h
# T1 sequence (Q92794 whole entry, the tested form may be a part): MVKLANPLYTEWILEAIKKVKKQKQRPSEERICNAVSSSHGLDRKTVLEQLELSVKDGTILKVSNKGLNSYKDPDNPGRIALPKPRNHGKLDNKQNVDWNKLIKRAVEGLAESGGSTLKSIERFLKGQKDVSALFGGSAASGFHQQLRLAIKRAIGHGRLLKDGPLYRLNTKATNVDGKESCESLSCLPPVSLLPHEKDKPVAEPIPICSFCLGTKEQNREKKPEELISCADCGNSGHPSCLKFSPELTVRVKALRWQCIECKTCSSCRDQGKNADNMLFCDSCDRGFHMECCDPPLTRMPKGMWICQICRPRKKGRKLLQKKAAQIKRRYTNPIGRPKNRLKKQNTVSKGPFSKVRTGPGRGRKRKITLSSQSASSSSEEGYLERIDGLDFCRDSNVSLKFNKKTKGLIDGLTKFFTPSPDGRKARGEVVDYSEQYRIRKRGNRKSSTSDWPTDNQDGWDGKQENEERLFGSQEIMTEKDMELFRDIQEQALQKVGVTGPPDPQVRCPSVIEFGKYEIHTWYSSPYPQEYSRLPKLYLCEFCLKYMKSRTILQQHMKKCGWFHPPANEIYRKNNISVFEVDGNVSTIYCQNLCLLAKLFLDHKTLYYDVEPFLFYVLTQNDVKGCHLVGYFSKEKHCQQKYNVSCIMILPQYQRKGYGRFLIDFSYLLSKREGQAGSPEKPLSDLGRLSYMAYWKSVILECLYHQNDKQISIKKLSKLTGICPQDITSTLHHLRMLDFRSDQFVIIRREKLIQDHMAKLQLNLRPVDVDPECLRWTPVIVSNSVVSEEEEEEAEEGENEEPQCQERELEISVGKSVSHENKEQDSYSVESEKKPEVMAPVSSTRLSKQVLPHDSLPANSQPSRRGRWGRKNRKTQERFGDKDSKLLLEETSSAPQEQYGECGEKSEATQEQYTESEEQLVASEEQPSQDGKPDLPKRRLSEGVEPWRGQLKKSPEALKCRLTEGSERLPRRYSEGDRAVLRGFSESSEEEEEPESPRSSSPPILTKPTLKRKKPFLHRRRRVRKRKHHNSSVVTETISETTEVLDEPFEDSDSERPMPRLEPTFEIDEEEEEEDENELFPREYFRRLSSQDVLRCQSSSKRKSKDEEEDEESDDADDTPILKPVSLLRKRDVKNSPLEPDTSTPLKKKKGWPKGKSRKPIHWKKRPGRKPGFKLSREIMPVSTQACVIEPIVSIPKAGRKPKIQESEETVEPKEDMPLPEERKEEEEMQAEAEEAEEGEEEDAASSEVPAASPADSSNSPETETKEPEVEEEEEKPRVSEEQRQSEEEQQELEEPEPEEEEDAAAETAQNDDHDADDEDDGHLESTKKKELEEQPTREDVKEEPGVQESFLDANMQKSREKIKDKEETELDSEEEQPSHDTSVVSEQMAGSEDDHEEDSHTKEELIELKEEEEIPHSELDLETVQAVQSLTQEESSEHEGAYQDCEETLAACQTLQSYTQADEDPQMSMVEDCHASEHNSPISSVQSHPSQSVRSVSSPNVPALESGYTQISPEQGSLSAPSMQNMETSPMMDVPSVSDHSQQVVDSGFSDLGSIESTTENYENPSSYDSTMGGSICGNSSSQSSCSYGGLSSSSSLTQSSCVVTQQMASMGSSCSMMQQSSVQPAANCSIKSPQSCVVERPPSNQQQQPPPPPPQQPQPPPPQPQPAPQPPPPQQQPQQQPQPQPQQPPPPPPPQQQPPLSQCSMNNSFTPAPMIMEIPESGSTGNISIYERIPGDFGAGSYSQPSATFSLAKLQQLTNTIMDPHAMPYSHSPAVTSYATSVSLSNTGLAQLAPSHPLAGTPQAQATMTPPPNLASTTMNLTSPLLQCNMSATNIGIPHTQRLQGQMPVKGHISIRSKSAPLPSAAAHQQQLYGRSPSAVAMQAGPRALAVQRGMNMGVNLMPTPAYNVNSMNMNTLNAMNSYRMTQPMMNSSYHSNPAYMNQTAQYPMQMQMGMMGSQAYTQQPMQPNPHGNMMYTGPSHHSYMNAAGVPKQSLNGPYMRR
SMILES,IC50 [1] [µM],IC50 [2] [µM],other results
O=C(NS(=O)(=O)c1ccccc1-c1ccccc1)c1cc2ccc(C3CC3)cc2o1,1.02,–,–
COc1cc(C)c2cc(C(=O)NS(=O)(=O)c3ccc(-c4ccccc4)cc3)oc2c1,> 17.6,0.046,pKa [3]: 5.8
O=C(NS(=O)(=O)c1ccccc1-c1ccccc1)c1cc2ccccc2o1,> 20,2.16,IC50 [4]: 10.5 µM
COc1cc(C)c2cc(C(=O)NS(=O)(=O)c3ccc(C)cc3-c3ccccc3)oc2c1,> 20,0.01,pKa [3]: 4.7
CCOc1cccc(-c2ccccc2)c1S(=O)(=O)NC(=O)c1cc2c(C)cc(OC)cc2o1,1.4,0.032,pKa [3]: 5.6
CN(C)c1cc(F)c2cc(C(=O)NS(=O)(=O)c3ccccc3-c3ccccc3)oc2c1,0.06,–,logD [5]: 2; solubility at 24 h [6]: 264 µg/mL
O=C(NS(=O)(=O)c1ccccc1-c1ccccc1)c1cc2c(F)cc(C3CC3)cc2o1,1,0.173,–
CCOc1ccc2cc(C(=O)NS(=O)(=O)c3ccccc3-c3ccccc3)oc2c1,9.75,0.554,–
O=C(NS(=O)(=O)c1ccccc1-c1ccccc1)c1cc2ccc(OCCO)cc2o1,> 20,1.37,–
Cc1cc(C)c2cc(C(=O)NS(=O)(=O)c3ccccc3-c3ccccc3)oc2c1,2.5,–,–
COc1cc(C)c2cc(C(=O)NS(=O)(=O)c3ccccc3-c3ccccc3)oc2c1,> 4.6,0.024,"Papp ([7]; caco-2, pH 7.2, 2 h, 2 µM): 6.4 ×10⁻⁶ cm/s; IC50 [4]: 0.076 µM; Ratio [8]: 1; pKa [3]: 4.3"
CCOc1cccc(-c2cccc(Cl)c2)c1S(=O)(=O)NC(=O)c1cc2c(C)cc(OC)cc2o1,3.68,0.011,pKa [3]: 6
CCCN(C)c1ccc2cc(C(=O)NS(=O)(=O)c3ccccc3-c3ccccc3)oc2c1,> 20,0.751,–
O=C(NS(=O)(=O)c1ccccc1-c1ccccc1)c1cc2ccc(N3CCOCC3)cc2o1,> 20,> 20,–
COc1cc(C)c2cc(C(=O)NS(=O)(=O)c3ccc(C)cc3)oc2c1,18.2,0.107,pKa [3]: 3
COc1ccc2oc(C(=O)NS(=O)(=O)c3ccccc3-c3ccccc3)cc2c1,–,1.8,IC50 [4]: 9.02 µM
COc1cc(C)cc2oc(C(=O)NS(=O)(=O)c3ccccc3-c3ccccc3)cc12,10,–,–
COc1ccc2cc(C(=O)NS(=O)(=O)c3ccccc3-c3ccccc3)oc2c1,7.62,0.26,IC50 [4]: 0.368 µM

SMILES,IC50 [1] [µM],IC50 [2] [µM],other results
COc1cccc2oc(C(=O)NS(=O)(=O)c3ccccc3-c3ccccc3)cc12,–,1.35,IC50 [4]: 3.14 µM
CNc1ccc2cc(C(=O)NS(=O)(=O)c3ccccc3-c3ccccc3)oc2c1,2.58,–,–
Cc1ccc2cc(C(=O)NS(=O)(=O)c3ccccc3-c3ccccc3)oc2c1,> 11,–,–
CCCOc1ccccc1S(=O)(=O)NC(=O)c1cc2c(C)cc(OC)cc2o1,6.54,0.019,pKa [3]: 4
CC(C)c1ccc2cc(C(=O)NS(=O)(=O)c3ccccc3-c3ccccc3)oc2c1,3.02,–,–
COc1cc(C)c2cc(C(=O)NS(=O)(=O)c3cccc4ccc(C)nc34)oc2c1,2.57,0.013,–
Cc1cc(Br)cc2oc(C(=O)NS(=O)(=O)c3ccccc3-c3ccccc3)cc12,> 20,0.066,–
Cc1cc(N(C)C)cc2oc(C(=O)NS(=O)(=O)c3ccccc3-c3ccccc3)cc12,> 20,–,–
C=C(C)c1ccc2cc(C(=O)NS(=O)(=O)c3ccccc3-c3ccccc3)oc2c1,1.32,–,–
COc1cccc2cc(C(=O)NS(=O)(=O)c3ccccc3-c3ccccc3)oc12,4.52,0.142,IC50 [4]: 0.351 µM
COCCN(C)c1ccc2cc(C(=O)NS(=O)(=O)c3ccccc3-c3ccccc3)oc2c1,> 15.5,1.35,–
COc1cc(C)c2cc(C(=O)NS(=O)(=O)c3ccc(Cl)cc3)oc2c1,2.28,0.075,pKa [3]: 2.9
COc1cc(C)c2cc(C(=O)NS(=O)(=O)c3ccccc3OC)oc2c1,13.2,0.046,pKa [3]: 3.2
O=C(NS(=O)(=O)c1ccccc1-c1ccccc1)c1cc2ccc(C(F)F)cc2o1,> 20,–,–
CCOc1ccccc1S(=O)(=O)NC(=O)c1cc2c(OC)cc(OC)cc2o1,–,–,"Papp A→B at 2 h, 2 µM ([7]; Caco-2, pH 7.2): 2.8 ×10⁻⁶ cm/s"
COCCc1ccc2cc(C(=O)NS(=O)(=O)c3ccccc3-c3ccccc3)oc2c1,> 15.6,–,–
CCCOc1ccc2cc(C(=O)NS(=O)(=O)c3ccccc3-c3ccccc3)oc2c1,8.68,1.54,–
Cc1cccc2oc(C(=O)NS(=O)(=O)c3ccccc3-c3ccccc3)cc12,–,0.454,IC50 [4]: 2.57 µM
